Patent publication US9101161B2, “High-potency sweetener composition with phytoestrogen and compositions sweetened therewith” (The Coca-Cola Company, priority 2006, dated 2015)

Assays:
[1] = Sensory evaluation of sweetness linger, Example Set G (REBA in citric acid/potassium citrate composition); type: in vivo; design: key: 0=no sweetness linger; 1=very slight sweetness linger; 2=slight sweetness linger; 3=moderate sweetness linger; 4=moderately high sweetness linger; 5 high sweetness linger; conditions: for sweetness linger: 400 ppm REBA in citric acid/potassium citrate composition equivalent to diet lemon-lime beverage, plus additive, expert panel, scale 0-5, sweetness 3-4 min after water rinse; for Sweetness Linger rating defined for controls: defined by the protocol, sucrose, 500 ppm REBA control sample
Protocol: Sensory evaluation of the samples prepared in Example Set G was carried out under the following protocol, similar to that described hereinabove. In this test protocol, none of the samples were swallowed. All samples were expectorated and the mouth was rinsed with water after the tasting, Immediately upon sensing maximal sweetness, the sample was expectorated, the mouth was rinsed with water and the rate of sweetness decay (“Sweetness Linger”) was measured, where attention was focused on the sweetness 3-4 min after the water rinse. After sample tasting was complete, a salty oyster cracker was chewed followed by a water rinse, and at least 5 minutes followed before tasting the next sample. The sweetness linger was rated by a panel of experts in the sensory evaluation of foods and beverages using the following scale: 0=no sweetness linger, 1=very slight sweetness linger, 2=slight sweetness linger, 3=moderate sweetness linger, 4=moderately high sweetness linger, 5 high sweetness linger.
The “Sweetness Linger” rating for sucrose observed by this protocol is defined as 0. The Sweetness Linger of a 500 ppm of REBA control sample is defined as 5. Experimental samples were tasted by the same protocol, always allowing sufficient time between samples to ensure re-equilibration of the sensory system. Re-tasting of control samples during the course of the experiment was allowed and encouraged.
The comparison taste test was performed between two controls and addition of sweet taste improving additive on the onset and/or sweetness linger.
The effects of formulation change on the sweetness linger of 400 ppm REBA (equivalent to 8 g sucrose) in a citric acid/potassium citrate composition equivalent to that in a diet lemon-lime beverage were evaluated. The sweetness linger rating of this solution was determined to be 5.
8 g of sugar was dissolved in 100 ml of citrate buffer. The sweetness linger rating of this control sample was determined to be 0.

[2] = Sensory evaluation of sweetness linger, Example Set H (REBA in phosphoric acid solution pH 2.4-2.5); type: in vivo; design: key: 0=no sweetness linger; 1=very slight sweetness linger; 2=slight sweetness linger; 3=moderate sweetness linger; 4=moderately high sweetness linger; 5 high sweetness linger; conditions: 500 ppm REBA (H41: 360 ppm) in carbon-treated water, phosphoric acid (75%) to pH 2.4-2.5, plus additive; scale 0-5
[3] = Sweetness level as sucrose equivalent; conditions: 400 ppm REBA
[4] = Rate of dissolution in H2O at 25° C. of rebaudioside A polymorph and amorphous forms; type: physicochemical
[5] = type: physicochemical
Protocol: A solution of rebaudioside A (>97% pure by HPLC) was prepared in double distilled water (12.5 gm in 50 mL, 25% concentration) by stirring the mixture at 40° C. for 5 minutes. An amorphous form of rebaudioside A was formed by immediately using the clear solution for spray drying with the Lab-Plant spray drier SD-04 instrument (Lab-Plant Ltd., West Yorkshire, U.K.). The solution was fed through the feed pump into the nozzle atomizer which atomized it into a spray of droplets with the help of a constant flow of nitrogen/air. […] This dry powder (11-12 g, H2O, 6.74%) was discharged continuously from the drying chamber and was collected in a bottle.

Row | Molecule | Rate of dissolution in H2O at 25° C. ([4]; H2O, 25° C.) | Rate of dissolution in H2O at 25° C. ([4]; grade in words) | solubility in water at room temperature [5] [%] | sweetness linger [1] | Sweetness Linger rating defined for controls [1] | sweetness linger [2] | sucrose equivalent [3] [g sucrose]
1 | rebaudioside A | – | – | – | 5 | 5 | 5 | 8
2 | rebaudioside A [Form 1] | (<0.2%/60 %/60 minutes | Very low | – | – | – | – | –
3 | rebaudioside A [Form 2] | (<30%/5 %/5 minutes | Intermediate | – | – | – | – | –
4 | OC[C@H]1O[C@@](CO)(O[C@H]2O[C@H](CO)[C@@H](O)[C@H](O)[C@H]2O)[C@@H](O)[C@@H]1O [sucrose] | – | – | – | 0 | 0 | 0 | –

The next lines start with results.

Row | Rate of dissolution in H2O at 25° C. ([4]; H2O, 25° C.) | Rate of dissolution in H2O at 25° C. ([4]; grade in words) | solubility in water at room temperature [5] [%] | Molecule | sweetness linger [1] | Sweetness Linger rating defined for controls [1] | sweetness linger [2] | sucrose equivalent [3] [g sucrose]
5 | > 35 %/5 minutes | High | > 35.0 | rebaudioside A [Form 4] | – | – | – | –
6 | > 30 %/5 minutes | High | – | rebaudioside A [Form 3] | – | – | – | –
